Earlier results, collected in patent publication US20070248684A1, “Pharmaceutical formulations of oxcarbazepine and methods for its preparation” (priority 2006, published 2007).

Settings: in words

solubility in water: practically insoluble
Compound: NC(=O)N1c2ccccc2CC(=O)c2ccccc21 [Oxcarbazepine, 10-oxo-10,11-dihydro-5H-dibenz[b,f]azepine-5-carboxamide]
